Entries after “also recorded” stand apart in the source; their conditions may differ.
Assays:
ERα = tested on: ERα; set-up: method as in doi:10.1351/pac200375091197; conditions: cited from earlier work
OVX and ORX mice = tested on: OVX and ORX mice; set-up: method as in doi:10.1351/pac200375091197; conditions: cited from earlier work
[1] = biological target: T1, human estrogen receptor α (ERα) (Homo sapiens, UniProt P03372); experiment: Competitive binding assay using [6,7-3H]17β-estradiol and human recombinant ERα (nitrocellulose filter binding); conditions: for RBA (relative binding affinity): binding affinity of E2 taken as 100, estimated from sigmoidal dose-response curves
T1 sequence (P03372 1-595): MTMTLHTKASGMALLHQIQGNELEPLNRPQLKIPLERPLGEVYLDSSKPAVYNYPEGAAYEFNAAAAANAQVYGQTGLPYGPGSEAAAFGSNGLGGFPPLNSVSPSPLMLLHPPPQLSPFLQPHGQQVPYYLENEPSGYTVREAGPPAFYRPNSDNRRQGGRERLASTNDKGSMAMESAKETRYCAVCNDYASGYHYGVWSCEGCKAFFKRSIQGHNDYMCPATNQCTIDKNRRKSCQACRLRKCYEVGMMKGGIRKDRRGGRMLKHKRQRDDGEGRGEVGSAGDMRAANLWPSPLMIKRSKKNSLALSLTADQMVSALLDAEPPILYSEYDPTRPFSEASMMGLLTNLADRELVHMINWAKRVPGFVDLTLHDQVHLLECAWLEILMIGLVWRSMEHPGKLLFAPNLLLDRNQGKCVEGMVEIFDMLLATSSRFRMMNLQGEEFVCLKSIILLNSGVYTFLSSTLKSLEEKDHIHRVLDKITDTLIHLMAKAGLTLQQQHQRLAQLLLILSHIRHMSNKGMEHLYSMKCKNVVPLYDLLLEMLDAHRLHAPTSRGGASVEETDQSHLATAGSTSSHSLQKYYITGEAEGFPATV
Protocol: The ligand binding activity of human estrogen receptor α (ER α) was determined by a nitrocellulose filter binding assay method. […] Radioactivity that remained in the membrane was measured in Atomlight by using a liquid scintillation counter.
All binding assays were performed in duplicate (n = 2).

MCF-7 cells = experiment: MCF-7 cell proliferation assay (WST-8), in the presence or absence of 0.1 nM E2; type: cell-based, human; conditions: for EC50: estrogenic activity, absence of E2, four days; for Emax / IC50: MCF7; for Emax: read-out: Emax (maximal efficacy toward cell proliferation); for IC50: proliferation induced by 0.1 nM of E2, read-out: IC50 (inhibition of MCF-7 cell proliferation)
Protocol: Table 1 summarizes the EC50, IC50, and Emax values estimated from the MCF-7 cell proliferation assays. Emax represents the maximal efficacy of each compound toward cell proliferation and is an index of ER partial agonistic activity. Emax was estimated relative to that of E2, which was taken as 100.
The human breast adenocarcinoma cell line MCF-7 was routinely cultivated in DMEM supplemented with 10% FBS and 100 IU/mL penicillin and […] streptomycin at 37 °C in a 5% CO2 humidified incubator. Before an assay, MCF-7 cells were switched to DMEM (low glucose phenol red-free supplemented with 5% FBS, and 100 IU/mL penicillin and […] streptomycin). Cells were trypsinized from the maintenance dish with phenol red-free trypsin-EDTA and seeded in a 96-well plate at a density of 2000 cells per final volume of 100 μL DMEM supplemented with 5% stripped FBS and 100 IU/mL penicillin and […] streptomycin. After 24 h, the medium was removed and 90 μL of fresh medium and 10 μL of drug solution, supplemented with serial dilutions of test compounds or DMSO as dilute control in the presence or absence of 0.1 nM E2, were added to triplicate microcultures. Cells were incubated for four days. At the end of the incubation time, number of cells was counted by using the WST-8, which was added to microcultures 10 μL each, and they were incubated for 2–4 h. The absorbance at 450 nm was measured. This parameter relates to and number of living cells in the culture.

ER = tested on: ER; set-up: method as in PMID 15943468; conditions: cited from earlier work
[2] = Homo sapiens, relative to E2, taken as 100

Compound	RBA (relative binding affinity) [1] [%]	Estrogenic / antiestrogenic activity toward MCF-7 (in words) (MCF-7 cells)	Binding to ERα (in words) [1]	EC50 (MCF-7 cells; Homo sapiens, MCF7, 96 h) [nM]	Emax (MCF-7 cells; [2]) [%]	melting point [°C]	other results
1,2-bis(4-hydroxyphenyl)-o-carborane [BE360]							Binding affinity toward ERα (in words) (ERα): high binding affinity toward ERα; Estrogenic action in bone and uterus (in words) (OVX and ORX mice): estrogenic action in bone without showing estrogenic action in the uterus
3,4-Bis (4-hydroxyphenyl)-2,3,6,7-tetrahydrothiepine [5a]	4.9	acted as an agonist toward MCF-7 cell proliferation; also recorded: showed estrogenic activity					EC50 (MCF-7 cells): 48 nM; Emax (maximal efficacy toward cell proliferation) (MCF-7 cells; relative to E2, taken as 100): 99%
Oc1ccc(C2=C(c3ccc(O)cc3)CSC2)cc1 [4a, 3,4-Bis-(4-hydroxyphenyl)-2,5-dihydrothiophene]		showed estrogenic activity	moderately bound to ERα	390	119		Binding affinity, times lower than that of E2 [1]: about 100 times
[O-][S+]1CC(c2ccc(O)cc2)=C(c2ccc(O)cc2)C1 [4b, 3,4-Bis-(4-hydroxyphenyl)-2,5-dihydrothiophene-1-oxide]	0.003		did not bind to the ERα ligand-binding domain (LBD), even at concentrations 1000 times higher than that of E2			219 to 220	
O=S1(=O)CC(c2ccc(O)cc2)=C(c2ccc(O)cc2)C1 [4c, 3,4-Bis-(4-hydroxyphenyl)-2,5-dihydrothiophene-1,1-dioxide]	0.04	showed estrogenic activity	did not bind to the ERα ligand-binding domain (LBD), even at concentrations 1000 times higher than that of E2	300	130	180.5 to 181	
CN(C)CCCOc1ccc(C2=C(c3ccc(O)cc3)CSC2)cc1 [4d, 4-{4-[4-(3-dimethylaminopropoxy)phenyl]-2,5-dihydrothiophen-3-yl}phenol]	4.0	acted as ER antagonists				177 to 178.5	IC50 (MCF-7 cells; Homo sapiens): 410 nM
O=S1(=O)CCC(c2ccc(O)cc2)=C(c2ccc(O)cc2)CC1 [5c, 4,5-Bis (4-hydroxyphenyl)-2,3,6,7-tetrahydrothiepine-1,1-dioxide]		weak estrogenic activity; also recorded: showed estrogenic activity		4700	89		
CN(C)CCCOc1ccc(C2=C(c3ccc(O)cc3)CCSCC2)cc1 [5d, 4-{5-[4-(3-Dimethylaminopropoxy)phenyl]-2,3,6,7-tetrahydrothiepin-4-yl}phenol]		acted as ER antagonists					IC50 (MCF-7 cells; Homo sapiens): 90 nM
Oc1ccc(C2=C(c3ccc(O)cc3)C3CCC2CC3)cc1 [compound 2]							Estrogenic activity (in words) (ER): potent estrogenic activity
CC1(C)CC(c2ccc(O)cc2)=C(c2ccc(O)cc2)CC1(C)C [compound 3]							Estrogenic activity (in words) (ER): acted as a partial agonist

— article PMC6864722, “Design and Synthesis of Novel Breast Cancer Therapeutic Drug Candidates Based upon the Hydrophobic Feedback Approach of Antiestrogens” (Molecules, 2019)
